The record followed here is patent publication US10231971B2, “Pharmaceutical composition for preventing and treating dry eye diseases, containing imatinib as active ingredient” (AVIXGEN INC., priority 2015, dated 2019).

Assay [1] concerns keratoconjunctivitis sicca (dry eye) animal model. Put plainly: Corneal epithelium protection: lissamine green staining of the cornea in keratoconjunctivitis sicca model. The assay is classed as in vivo, Spraque-Dawley (SD) rats. Here is the method: To carry out an experiment for dry corneal epithelial damage, a dry eye animal model was constructed. 8-week-old Spraque-Dawley (SD) rats (available from Orient Bio) were used as an animal, keratoconjunctivitis sicca was induced by administering an eye drop containing 0.1% benzalkonium chloride (Sigma Aldrich) in 1% atropine sulfate (Alcon) twice a day for 2 weeks.
The imatinib eye drop (1 mg/ml) was administered dropwise to an eye twice a day for 1 week after 7 days of administration of 1% atropine sulfate and 0.1% benzalkonium chloride. To compare therapeutic effects, a 0.05% Cyclosporin eye drop (Restasis, Allergan) was used as a reference drug.
Corneal epithelial damage was identified in the keratoconjunctivitis sicca animal model by staining a surface of the cornea with a 1% lissamin green solution and observing a damaged region thereof (see FIG. 1).
Damage to corneal epithelium cells due to dryness was identified in a keratoconjunctivitis sicca (dry eye)-induced cornea by staining a dried state of the corneal epithelium cells with lissamin green (see FIG. 1). […] A stained area after staining was expressed as a percentage (%) with respect to a total corneal area.

Assay [2] has the same test system. The settings on record: imatinib eye drop (0.1 mg/ml), twice a day for 1 week; FIG. 4.
Assay [3] has the same test system. Put plainly: Invasion of specific inflammatory cells into the cornea: LSP-1 immunostaining in keratoconjunctivitis sicca model. The format is in vivo, Spraque-Dawley (SD) rats. As to conditions: imatinib eye drop 0.1%. How it is done: An experiment was carried out using the same administration method as that used in the animal model of Example 1, and then an inflammation inhibitory effect of imatinib on specific inflammatory cells invaded into the cornea was identified.
To identify inflammatory cells in the cornea in keratoconjunctivitis sicca (dry eye), the eye was cryosectioned, and inflammatory cells having an antigen of LSP-1 were stained and observed (See FIG. 5). Inflammation-associated cells such as lymphocytes, neutrophils, and macrophages have LSP-1 can be observed after being immunostained using an LSP-1 antibody. Inflammatory cells were observed by 0.61±0.05 in a control (a drug-non-treated group) and by 0.52±0.05 in an imatinib eye drop (0.1%) (See FIG. 6).

Regarding `Cc1ccc(NC(=O)c2ccc(CN3CCN(C)CC3)cc2)cc1Nc1nccc(-c2cccnc2)n1` [imatinib], the “lissamine green stained area as percentage of total corneal area” value in assay [1] (concentration-dependent efficacy test, 0.01% (0.1 mg/ml), vehicle control 12.8±1.98%, FIG. 3) stood at 8.2±0.97%; in assay [1] (concentration-dependent efficacy test, 0.05% (0.5 mg/ml), vehicle control 12.8±1.98%, FIG. 3), 6.18±0.9%; in assay [1] (concentration-dependent efficacy test, 0.1% (1 mg/ml), vehicle control 12.8±1.98%, FIG. 3), 3.7±0.87%; in assay [1] (concentration-dependent efficacy test, 0.5% (5 mg/ml), vehicle control 12.8±1.98%, FIG. 3), 3.5±1.1%; in assay [1] (concentration-dependent efficacy test, 1.0% (10 mg/ml), vehicle control 12.8±1.98%, FIG. 3), 3.1±1.2%; in assay [1] (imatinib 0.1% (1 mg/ml) eye drop, twice a day for 1 week, vehicle control 11±1.26%, FIG. 2), 2.6±0.39%. Besides, in assay [1] (imatinib 0.01% to 1.0%, FIG. 3), the “effect on lissamine green staining when administered according to concentration” value is recorded as “concentration-dependent effect”. Also, the “corneal degeneration (keratinization of corneal epithelial cells, F-actin staining)” value in assay [2] is “not observed”. Also, the “effect on inflammation in keratoconjunctivitis sicca (inflammatory cell staining)” value in assay [3] was “had an inflammation inhibitory effect”. In addition, in assay [3] (control (drug-non-treated group) 0.61±0.05, FIG. 6), the “inflammatory cells observed (LSP-1-stained cells in the cornea)” value is reported as 0.52±0.05.
